This is an account of results in patent US20070264411A1, “PROCESS OF PRODUCING A CAPSINOID-CONTAINING FOOD AND DRINK” (AJINOMOTO CO., INC., priority 2006, published 2007).

Bounds are passed on as bounds.

What all share (type): physicochemical
A short description of data set [1]: Storage stability of diluted dihydrocapsiate emulsion with added emulsifier DECAGLYN 1-O (HPLC capsinoid content). Here is the method:
A dihydrocapsiate emulsion composition was prepared according to the method described in Example 1 of JP Patent Kokai Publication No. JP-P2003-192576A. Briefly, decaglycerin monooleate (Nikko Chemical Co.; trade name, DECAGLYN 1-O) (21 g), glycerin (193 g) and water (26 g) were mixed, dissolved under heating at 90-95° C., and cooled to 30° C. Synthetic dihydrocapsiate (8.5 g) and sucrose acetate isobutyrate (SAIB) (51 g) were added and dissolved under heating at 85-90° C., and the mixture was emulsified at 30-90° C. to prepare a capsinoid-containing emulsion composition (pH 3.6). The resulting emulsion composition was diluted with up to 1000 parts of 0.01M citrate buffer (pH 3.5) supplemented with sucrose to obtain an additive-free sample. On the other hand, the composition was diluted with up to 1000 parts of 0.01M citrate buffer (pH 3.5) supplemented with sucrose to which was added 0.014%, 0.114% emulsifier (Nikko Chemical Co.; DECAGLYN 1-0) respectively, to prepare emulsion-supplemented samples. The resulting samples were sterilized by heating for 20 minutes at 44° C. and stored.
Every one week after storage, the capsinoid content was determined. Analysis of the capsinoid content was performed by high performance liquid chromatography (HPLC) after dilution with an ethyl acetate/methanol (6:4) mixture.

Data set [2] can be described thus: Storage stability of diluted dihydrocapsiate emulsion with a variety of emulsifiers added. Conditions: 8 emulsifiers of Table 1 other than DECAGLYN 1-O, each at 0.114% in 0.01M citrate buffer (pH 3.5) with sucrose; 1000 parts dilution; FIG. 2. The protocol:
In the same manner as in Example 1, a dihydrocapsiate containing emulsion composition was diluted with up to 1000 parts of 0.01M citrate buffer (pH 3.5) supplemented with sucrose and the stability of storage was evaluated. Prior to addition of the dihydrocapsiate containing emulsion composition 8 types of emulsifiers were added to 0.01M citrate buffer (pH 3.5) supplemented with sucrose so as to be 0.114%, and the difference of the stability as a function of the emulsifier added was evaluated.

The nature of data set [3]: Storage stability of diluted dihydrocapsiate emulsion with a variety of high molecular weight components added. Conditions: 500 parts dilution, FIG. 3. Here is the method: In the same manner as in Example 2, a dihydrocapsiate containing emulsion composition was diluted with up to 500 parts of 0.01M citrate buffer (pH 3.5) supplemented with sucrose and the stability of storage was evaluated. Prior to addition of the dihydrocapsiate containing emulsion composition 8 types of high molecular weight components were added to 0.01M citrate buffer (pH 3.5) supplemented with sucrose, and the difference of the stability as a function of the high molecular weight components added was evaluated. […] In regard to the amount of high molecular weight component to be added, xanthan gum was reduced to 0.1% because it gives high viscosity in a small quantity. The amount of other high molecular weight components added than xanthan gum was fixed at 0.5%.

A short description of data set [4]: Storage stability of dihydrocapsiate emulsion mixed with emulsifier in advance or diluted with emulsifier-containing buffer. Conditions: stored at 24° C. and 44° C. Here is the method: Into a capsinoid emulsion composition prepared in Example 1 an emulsifier (Nikko Chemical Co., Decaglyn 1-O) was blended at a ratio of 10 to 3 under heating (50-70° C.) to prepare a composition. The resulting composition was diluted with up to 230 parts of 0.01M citrate buffer (pH 3.5) supplemented with sucrose to prepare a mixture of the emulsion composition and the emulsifier. On the other hand, an additive-free sample prepared by diluting the capsinoid emulsion composition (prepared in Example 1) with up to 300 parts of the same buffer was diluted with up to 300 parts of 0.01M citrate buffer (pH 3.5) supplemented with sucrose to which was added an emulsifier (Nikko Chemical Co., DECAGLYN 1-0) in advance at a rate of 0.10%, to prepare a sample containing an emulsifier. In either sample, the content of capsinoid after dilution with the buffer correspond to 0.33% of the initial amount of capsinoid existing in the emulsion composition. Thus prepared samples were sterilized under heat for 20 minutes and stored at 24° C. and 44° C.
In periodical sampling, the content of capsinoid was determined. The content of capsinoid was analyzed by high performance liquid chromatography (HPLC) after dilution with a mixture of ethyl acetate and methanol (6:4).

For the compound dihydrocapsiate, the “storage stability of dihydrocapsiate” value in data set [1] (emulsion composition diluted up to 1000 parts with 0.01M citrate buffer (pH 3.5) with sucrose, 0.014% or 0.114% DECAGLYN 1-O added vs additive-free, FIG. 1) is on record as “increased with increase of the amount of emulsifier added”.
For the compound `COc1cc(COC(=O)CCCCCCC(C)C)ccc1O` [dihydrocapsiate], the “rate of residual dihydrocapsiate relative to emulsifier-free case” value in data set [1] (0.114% emulsifier (DECAGLYN 1-O) added, about one month after storage, citrate buffer pH 3.5) was no less than 2 times. Moreover, the “stability of dihydrocapsiate during storage” value in data set [2] is listed as “improve the stability”. In addition, the “storage stability of dihydrocapsiate” value is reported as “Improvement of the storage stability” in data set [3] (HM pectin 0.5% in 0.01M citrate buffer (pH 3.5) with sucrose); “Improvement of the storage stability” in data set [3] (carboxymethylcellulose sodium (CMC sodium) 0.5% in 0.01M citrate buffer (pH 3.5) with sucrose); “Improvement of the storage stability” in data set [3] (carrageenan 0.5% in 0.01M citrate buffer (pH 3.5) with sucrose); “improves the storage stability” in data set [4] (FIG. 4A: emulsion composition diluted up to 300 parts with buffer to which 0.10% DECAGLYN 1-O was previously added); “improves the storage stability” in data set [4] (FIG. 4B: emulsion composition pre-blended with Decaglyn 1-O (10 to 3), diluted up to 230 parts with buffer containing no emulsifier).
